For orientation: Ki means a dissociation constant, usually derived from enzyme kinetics or from competition with a known ligand.

Results on 2 compounds are retold here after publication PMC6449294, “SNAPshots of the MCHR1: a Comparison Between the PET-Tracers [^18F]FE@SNAP and [^11C]SNAP-7941” (Molecular Imaging and Biology, 2018).

The target of data set [1] is T1, human serum albumin (HSA) (Homo sapiens, UniProt P02768).
T1 construct: purchased Daicel Chemical Industries CHIRALPAK HSA, column-batch H13L-2405
Briefly: Plasma protein binding using bioaffinity chromatography (CHIRALPAK HSA). Format: in vitro ADME. The conditions noted are these: bioaffinity chromatography on HSA stationary phase. On the procedure:
The binding of (±)-SNAP-7941 and FE@SNAP to human serum albumin (HSA) was examined by bioaffinity chromatography according to a previously published manuscript. In short, the analytes were diluted in 2-propanol and ammonium acetate buffer (0.5 mg/ml) and injected on the CHIRALPAK®HSA stationary phase (50 × 3 mm, 5 μm pore size, column-batch: H13L-2405, Daicel Chemical Industries, West Chester, PA, USA). Prior the experiments, the column was calibrated with reference standards, and the resulting regression equation was used to convert the logarithmic capacity factors (log(k′)) to the percent of plasma protein binding (%PPB). The calibration curves, as well as the experiments, were performed by triplicate injections and at least three times.

In a further data set the target is MCHR1. Also noted: method as in PMID 28808288. The conditions noted are these: previous experiments; read-out: Affinity to MCHR1 (Ki); cited from earlier work.

T1 sequence (P02768 25-609): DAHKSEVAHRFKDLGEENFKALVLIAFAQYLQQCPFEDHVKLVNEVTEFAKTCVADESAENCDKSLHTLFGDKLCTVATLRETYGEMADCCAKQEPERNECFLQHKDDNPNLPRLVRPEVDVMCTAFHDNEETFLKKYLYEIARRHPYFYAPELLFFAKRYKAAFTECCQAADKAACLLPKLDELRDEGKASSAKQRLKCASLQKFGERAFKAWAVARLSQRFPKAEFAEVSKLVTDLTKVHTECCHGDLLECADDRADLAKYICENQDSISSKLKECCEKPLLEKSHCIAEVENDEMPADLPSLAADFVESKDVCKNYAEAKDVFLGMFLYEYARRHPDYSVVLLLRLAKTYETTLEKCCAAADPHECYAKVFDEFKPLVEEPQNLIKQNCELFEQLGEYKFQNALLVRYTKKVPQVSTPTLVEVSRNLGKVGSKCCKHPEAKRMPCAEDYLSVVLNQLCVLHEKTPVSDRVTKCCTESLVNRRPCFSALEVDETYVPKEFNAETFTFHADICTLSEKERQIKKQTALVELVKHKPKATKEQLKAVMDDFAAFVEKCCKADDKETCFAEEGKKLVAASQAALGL

Regarding `COCC1=C(C(=O)OC)[C@H](c2ccc(F)c(F)c2)N(C(=O)NCCCN2CCC(c3cccc(NC(C)=O)c3)CC2)C(=O)N1` (racemic) [(±)-SNAP-7941, reference compound], the “Plasma protein binding (%PPB) / Binding to human serum albumin” value in data set [1] was 80 ± 0.9%. Moreover, at MCHR1, the inhibitory constant (Ki) was 3.91 ± 0.74 nM.
Regarding `COCC1=C(C(=O)OCCF)C(c2ccc(F)c(F)c2)N(C(=O)NCCCN2CCC(c3cccc(NC(C)=O)c3)CC2)C(=O)N1` (racemic) [FE@SNAP, (±)-(2-fluoroethyl)-3-{[(3-{4-[3-(acetylamino)phenyl]-1-piperidinyl}propyl)amin]carbonyl}-4-(3,4-difluorophenyl)-6-(methoxymethyl)-2-oxo-1,2,3,4-tetra-hydro-5-pyrimidenecarboxylate], the “Plasma protein binding (%PPB) / Binding to human serum albumin” value in data set [1] is given as 77 ± 0.2%. Moreover, the Ki at MCHR1 is 9.98 ± 1.12 nM.
